# Assay results taken from US20250236616A1, “IMMUNOMODULATING AZALIDES” (Zoetis Services LLC, priority 2021, published 2025).
# Marks after values point to notes of the source that are not given here.
# Assays:
# Type in all cases: cell-based
# IL-1β = experiment: Whole bovine blood assay, LPS-induced IL-1β (inhibition / overstimulation); conditions: drug concentration giving overstimulation (OS) of LPS-induced IL-1β, top concentration 250 μM
# Method in brief: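 IL-1β was quantified by MSD U-Plex chemiluminescence in plasma and normalized to BCA total protein. Bovine blood was pretreated 4 h at 37 °C with compound dilutions before 18 h LPS challenge (1 μg/mL final). Rising IL-1β at high concentrations was recorded as overstimulation.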
# IL-6 = experiment: Whole bovine blood assay, LPS-induced IL-6; conditions: fresh whole bovine blood, LPS stimulant, top drug concentration 250 μM
# TNF-α = experiment: Whole bovine blood assay, LPS-induced TNF-α; conditions: fresh whole bovine blood, LPS stimulant, top drug concentration 250 μM
# Method in brief: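 Fresh heparinized bovine whole blood was preincubated with compound 4 h at 37 °C, then stimulated with LPS (final 1 μg/mL) for 18 h at 37 °C. Plasma TNF-α was quantified by MSD U-Plex chemiluminescent immunoassay, normalized to total protein (BCA), and IC50 taken for LPS-induced TNF-α inhibition.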
# [1] = test system: BRD pathogens, M. haemolytica and P. multocida; experiment: MIC screening panel, BRD pathogens (CLSI broth micro-dilution); conditions: Table B, at least one BRD pathogenic strain, top concentration 64 μg/mL
# Method in brief: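 MICs were determined by CLSI broth micro-dilution in cation-adjusted Mueller Hinton Broth at about 5×10^5 CFU/mL, with QC strains included. Incubation was 18-22 h at 35-37° C. in air, 5% CO2 or anaerobically (up to 48 h) depending on strain. BRD pathogens were first tested at a top concentration of 64 μg/mL in an eleven-point dilution series.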
Compound,"minimal effective concentration (IL-1β; Bos taurus, 18 h) [µM]",IC50 (IL-6; Bos taurus) [µM],IC50 (TNF-α; Bos taurus) [µM],MIC ([1]; read-out: MIC flag (*) for BRD pathogenic strains) [µg/mL],minimal effective concentration (IL-1β) [µM],IC50 (IL-6) [µM],IC50 (TNF-α) [µM],MIC flag (*) for BRD pathogenic strains [1]
"CCCNC[C@]1(O)[C@H](C)OC(O[C@H]2[C@H](C)[C@@H](O[C@@H]3O[C@H](C)C[C@H](N(C)S(=O)(=O)c4cc(Br)c(Br)s4)[C@H]3Oc3ccc(OC)cc3)[C@](C)(O)C[C@@H](C)CN[C@H](C)[C@@H](O)[C@](C)(O)[C@@H](CC)OC(=O)[C@@H]2C)C[C@@]1(C)OC (stereo partly drawn) [Example B-105, 4,5-dibromo-N-[(2S,3R,4S,6R)-2-[[(2R,3S,4R,5R,8R,10R,11R, 12S, 13S, 14R)-2-ethyl-3,4, 10-trihydroxy-13-[(4R,5S,6S)-5-hydroxy-4-methoxy-4,6-dimethyl-5-(propylaminomethyl)oxan-2-yl]oxy-3,5,8, 10, 12,14-hexamethyl-15-oxo-1-oxa-6-azacyclopentadec-11-yl]oxy]-3-(4-methoxyphenoxy)-6-methyloxan-4-yl]-N-methylthiophene-2-sulfonamide]",3,7,12,≤ 64,–,–,–,–
"(2R,3S,4R,5R,8R,10R,11R,12S,13S,14R)-2-ethyl-3,4,10-trihydroxy-13-[(2R,4R,5S,6S)-5-hydroxy-4-methoxy-4,6-dimethyl-5-[(3,3,3-trifluoropropylamino)methyl]oxan-2-yl]oxy-11-[(2S,3R,4S,6R)-3-hydroxy-6-methyl-4-[methyl-[[4-(trifluoromethyl)phenyl]sulfamoyl]amino]oxan-2-yl]oxy-3,5,8, 10, 12,14-hexamethyl-15-oxo-1-oxa-6-azacyclopentadecane [Example B-65]",–,–,–,–,6,15,9,B-65* (MIC ≤64 μg/mL for at least one BRD pathogenic strain)
